In the experiment the target is T1, human H3 receptor (Homo sapiens, UniProt Q9Y5N1).
T1 construct: expressed in transfected cells
T1 sequence (Q9Y5N1 whole entry): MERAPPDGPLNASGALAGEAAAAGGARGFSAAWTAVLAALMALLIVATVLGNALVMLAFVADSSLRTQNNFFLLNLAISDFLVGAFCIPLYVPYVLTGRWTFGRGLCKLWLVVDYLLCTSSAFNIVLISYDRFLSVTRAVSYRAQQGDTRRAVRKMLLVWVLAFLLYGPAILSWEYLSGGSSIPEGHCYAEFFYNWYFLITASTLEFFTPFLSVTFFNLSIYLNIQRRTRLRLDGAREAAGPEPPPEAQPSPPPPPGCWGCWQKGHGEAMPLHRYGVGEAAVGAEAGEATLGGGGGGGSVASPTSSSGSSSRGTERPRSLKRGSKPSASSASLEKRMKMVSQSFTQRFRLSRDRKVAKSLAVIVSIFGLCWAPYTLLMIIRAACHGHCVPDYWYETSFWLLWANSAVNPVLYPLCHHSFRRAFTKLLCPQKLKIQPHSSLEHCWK
As to the kind of experiment: In vitro H3 binding assay (3H-N-α-methyl-histamine competition binding). The note with it: membranes of CHO-K1 cells expressing human H3 receptor; 2 nM 3H-NαMH; read-out: hH3 binding IC50. The method, then: The ability of compounds to bind to the H3 receptor was determined by measuring the reduction in tritiated N-α-methyl-histamine (^3H—NαMH) binding in a competition binding assay. Changes in the levels of bound radio-label were monitored by scintillation counting with a Trilux Microbeta (Perkin Elmer).
Membranes were prepared from CHO-K1 cells stably expressing human H3 receptor; routinely grown as monolayers in Ham's F12 medium (Invitrogen) supplemented with 10% Foetal Clone 111 (Hyclone), 500 μg/ml G418 (Invitrogen), 5 μg/ml blasticidine S (Invivogen) and […] Gentamicin (Sigma) in 5% CO2 at 37° C. Cells were grown to 80-95% confluency, rinsed once with 1×PBS (Invitrogen) and detached by incubating with 1×PBS containing 0.02% EDTA (Sigma) for 10 minutes at room temperature. Cells were collected by centrifugation at 900×g, 4° C. for 10 minutes. Cells were rinsed once with 1×PBS and re-suspended in ice cold homogenisation buffer (50 mM Tris-HCl (pH 7.4), 2.5 mM EDTA, 5 mM MgCl2, 200 mM Sucrose) at 1×10^7 cells/ml and kept on ice. Cells were homogenised on ice and debris removed by centrifugation at 500×g, 4° C. for 5 minutes. The resulting supernatant was centrifuged at 75,600×g, 4° C. for 60 minutes. Membranes were suspended in homogenisation buffer, protein concentration was determined (BCA Protein Assay kit (Pierce)), diluted to 2.2 mg/ml, dispensed into 1 ml aliquots and stored at −80° C.
Membranes were thawed on ice, sonicated with 4 cycles of 20 pulses (50% amplitude, 0.5 pulse) (UP200S Hielscher) on ice, diluted in assay buffer (50 mM Tris-HCl (pH7.4), 5 mM MgCl2) to 62.5 μg/ml. Compound was serially diluted in DMSO before being diluted 1:10 with assay buffer. 5 μg of membrane in 80 μl of assay buffer was added per well of a 96 well polystyrene plate (Corning). […] of compound was added per well. The assay was initiated by the addition of 10 μl of 20 nM ^3H—NαMH per well and incubated for one hour at room temperature with shaking. Total binding was determined in the presence of 1% DMSO and non-specific binding was determined by the inclusion of 1 μM R-α-methyl-histamine (RαMH). Incubations were then filtered through filtermat A (Perkin Elmer) and washed three times with assay buffer. Filtermats were dried at 42° C. for two hours, scintillant added and the level of bound radioactivity determined.
IC50 values for compounds were determined from seven point log scale dose-response studies and represent the concentration of compound required to inhibit 50% of the specific binding of 2 nM ^3H—NαMH (difference between total and non-specific binding). Curves were generated using the average of duplicate wells for each data point and analyzed using nonlinear regression of sigmoidal dose response (variable slope).
Usually IC50 stands for the concentration that inhibits the measured activity by half. For `O=C(NCC1CCN(C2CCC2)CC1)c1ccc2c(c1)CCN(C1CCC1)CC2` [Example 11, 3-Cyclobutyl-N-((1-cyclobutylpiperidin-4-yl)methyl)-2,3,4,5-tetrahydro-1H-benzo[d]azepine-7-carboxamide], the IC50 amounted to 30 nM. The same measure for `O=C(NCc1ccccc1)c1ccc2c(c1)CCN(C1CCCC1)CC2` [Example 19, N-Benzyl-3-cyclopentyl-2,3,4,5-tetrahydro-1H-benzo[d]azepine-7-carboxamide]: 20 nM. The same measure for `O=C(NCc1ccncc1)c1ccc2c(c1)CCN(C1CCCC1)CC2` [Example 21, 3-Cyclopentyl-N-(pyridin-4-ylmethyl)-2,3,4,5-tetrahydro-1H-benzo[d]azepine-7-carboxamide]: 13 nM; for `CCNC(=O)c1ccc2c(c1)CCN(C1CCC1)CC2` [Example 25, 3-Cyclobutyl-N-ethyl-2,3,4,5-tetrahydro-1H-benzo[d]azepine-7-carboxamide]: 37 nM; for `CC(C)NC(=O)c1ccc2c(c1)CCN(C1CCC1)CC2` [Example 26, 3-Cyclobutyl-N-isopropyl-2,3,4,5-tetrahydro-1H-benzo[d]azepine-7-carboxamide]: 36 nM. The same measure for `O=C(NC1CCC1)c1ccc2c(c1)CCN(C1CCC1)CC2` [Example 27, N,3-Dicyclobutyl-2,3,4,5-tetrahydro-1H-benzo[d]azepine-7-carboxamide]: 21 nM. Turning to `O=C(NCC1CCCC1)c1ccc2c(c1)CCN(C1CCC1)CC2` [Example 30, 3-Cyclobutyl-N-(cyclopentylmethyl)-2,3,4,5-tetrahydro-1H-benzo[d]azepine-7-carboxamide], the IC50 worked out at 5 nM. As for `O=C(NCCc1ccccc1)c1ccc2c(c1)CCN(C1CCC1)CC2` [Example 38, 3-Cyclobutyl-N-phenethyl-2,3,4,5-tetrahydro-1H-benzo[d]azepine-7-carboxamide], the IC50 worked out at 9 nM.

On to `O=C(NCc1ccccn1)c1ccc2c(c1)CCN(C1CCC1)CC2` [Example 45, 3-Cyclobutyl-N-(pyridin-2-ylmethyl)-2,3,4,5-tetrahydro-1H-benzo[d]azepine-7-carboxamide], for which the IC50 was determined as 13 nM. The same measure for `COc1ccc(CNC(=O)c2ccc3c(c2)CCN(C2CCC2)CC3)cc1` [Example 49, 3-Cyclobutyl-N-(4-methoxybenzyl)-2,3,4,5-tetrahydro-1H-benzo[d]azepine-7-carboxamide]: 34 nM; for `COC(=O)c1ccc(CNC(=O)c2ccc3c(c2)CCN(C2CCC2)CC3)cc1` [Example 50, Methyl 4-((3-cyclobutyl-2,3,4,5-tetrahydro-1H-benzo[d]azepine-7-carboxamido)methyl)benzoate]: 24 nM; for `O=C(NCc1ccccc1Br)c1ccc2c(c1)CCN(C1CCC1)CC2` [Example 54, N-(2-Bromobenzyl)-3-cyclobutyl-2,3,4,5-tetrahydro-1H-benzo[d]azepine-7-carboxamide]: 10 nM. With `O=C(NCc1ccccc1C(F)(F)F)c1ccc2c(c1)CCN(C1CCC1)CC2` [Example 57, 3-Cyclobutyl-N-(2-(trifluoromethyl)benzyl)-2,3,4,5-tetrahydro-1H-benzo[d]azepine-7-carboxamide] the figure was 12 nM. Regarding `O=C(NCc1ccccc1Cl)c1ccc2c(c1)CCN(C1CCC1)CC2` [Example 63, N-(2-Chlorobenzyl)-3-cyclobutyl-2,3,4,5-tetrahydro-1H-benzo[d]azepine-7-carboxamide], the IC50 came to 6 nM. With `O=C(NCc1cccc(Cl)c1)c1ccc2c(c1)CCN(C1CCC1)CC2` [Example 65, N-(3-Chlorobenzyl)-3-cyclobutyl-2,3,4,5-tetrahydro-1H-benzo[d]azepine-7-carboxamide] the figure was 4 nM; with `O=C(NCc1ccc(Cl)cc1)c1ccc2c(c1)CCN(C1CCC1)CC2` [Example 67, N-(4-Chlorobenzyl)-3-cyclobutyl-2,3,4,5-tetrahydro-1H-benzo[d]azepine-7-carboxamide], 11 nM.

As to `Cn1ccc2cc(CNC(=O)c3ccc4c(c3)CCN(C3CCC3)CC4)ccc21` [Example 75, 3-Cyclobutyl-N-((1-methyl-1H-indol-5-yl)methyl)-2,3,4,5-tetrahydro-1H-benzo[d]azepine-7-carboxamide], the concentration for half-maximal inhibition (IC50) was 15 nM.

Regarding `O=C(NCc1cc(-c2cccs2)on1)c1ccc2c(c1)CCN(C1CCC1)CC2` [Example 84, 3-Cyclobutyl-N-((5-(thiophen-2-yl)isoxazol-3-yl)methyl)-2,3,4,5-tetrahydro-1H-benzo[d]azepine-7-carboxamide], the IC50 came out at 10 nM. The same measure for `Cc1oc(-c2ccccc2)nc1CNC(=O)c1ccc2c(c1)CCN(C1CCC1)CC2` [Example 85, 3-Cyclobutyl-N-((5-methyl-2-phenyloxazol-4-yl)methyl)-2,3,4,5-tetrahydro-1H-benzo[d]azepine-7-carboxamide]: 14 nM; for `O=C(NCc1cccs1)c1ccc2c(c1)CCN(C1CCC1)CC2` [Example 87, 3-Cyclobutyl-N-(thiophen-2-ylmethyl)-2,3,4,5-tetrahydro-1H-benzo[d]azepine-7-carboxamide]: 4 nM; for `O=C(NCc1ccoc1)c1ccc2c(c1)CCN(C1CCC1)CC2` [Example 89, 3-Cyclobutyl-N-(furan-3-ylmethyl)-2,3,4,5-tetrahydro-1H-benzo[d]azepine-7-carboxamide]: 18 nM. The same measure for `Cc1occc1CNC(=O)c1ccc2c(c1)CCN(C1CCC1)CC2` [Example 90, 3-cyclobutyl-N-((2-methylfuran-3-yl)methyl)-2,3,4,5-tetrahydro-1H-benzo[d]azepine-7-carboxamide]: 10 nM; for `Cc1cc(CNC(=O)c2ccc3c(c2)CCN(C2CCC2)CC3)c(C)o1` [Example 91, 3-cyclobutyl-N-((2,5-dimethylfuran-3-yl)methyl)-2,3,4,5-tetrahydro-1H-benzo[d]azepine-7-carboxamide]: 6 nM; for `Cc1nc(CNC(=O)c2ccc3c(c2)CCN(C2CCC2)CC3)c(C)o1` [Example 93, 3-cyclobutyl-N-((2,5-dimethyloxazol-4-yl)methyl)-2,3,4,5-tetrahydro-1H-benzo[d]azepine-7-carboxamide]: 29 nM. The same measure for `CCn1cc(CNC(=O)c2ccc3c(c2)CCN(C2CCC2)CC3)cn1` [Example 95, 3-Cyclobutyl-N-((1-ethyl-1H-pyrazol-4-yl)methyl)-2,3,4,5-tetrahydro-1H-benzo[d]azepine-7-carboxamide]: 18 nM; for `Cc1nn(C)c(C)c1CNC(=O)c1ccc2c(c1)CCN(C1CCC1)CC2` [Example 96, 3-Cyclobutyl-N-((1,3,5-trimethyl-1H-pyrazol-4-yl)methyl)-2,3,4,5-tetrahydro-1H-benzo[d]azepine-7-carboxamide]: 18 nM; for `Cc1nn(C)cc1CNC(=O)c1ccc2c(c1)CCN(C1CCC1)CC2` [Example 98, 3-Cyclobutyl-N-((1,3-dimethyl-1H-pyrazol-4-yl)methyl)-2,3,4,5-tetrahydro-1H-benzo[d]azepine-7-carboxamide]: 15 nM. For the molecule `CCn1cc(CNC(=O)c2ccc3c(c2)CCN(C2CCC2)CC3)c(C)n1` [Example 99, 3-Cyclobutyl-N-((1-ethyl-3-methyl-1H-pyrazol-4-yl)methyl)-2,3,4,5-tetrahydro-1H-benzo[d]azepine-7-carboxamide], the IC50 came out at 18 nM.

Regarding `Cn1ncc(Cl)c1CNC(=O)c1ccc2c(c1)CCN(C1CCC1)CC2` [Example 102, N-((4-chloro-1-methyl-1H-pyrazol-5-yl)methyl)-3-cyclobutyl-2,3,4,5-tetrahydro-1H-benzo[d]azepine-7-carboxamide], the IC50 is 18 nM. Regarding `CCn1cc(Cl)c(CNC(=O)c2ccc3c(c2)CCN(C2CCC2)CC3)n1` [Example 106, N-((4-chloro-1-ethyl-1H-pyrazol-3-yl)methyl)-3-cyclobutyl-2,3,4,5-tetrahydro-1H-benzo[d]azepine-7-carboxamide], the IC50 was 13 nM. The same measure for `Cn1nc(-c2cccs2)cc1CNC(=O)c1ccc2c(c1)CCN(C1CCC1)CC2` [Example 109, 3-Cyclobutyl-N-((1-methyl-3-(thiophen-2-yl)-1H-pyrazol-5-yl)methyl)-2,3,4,5-tetrahydro-1H-benzo[d]azepine-7-carboxamide]: 2 nM.

The values are drawn from patent US20110124626A1, “BENZAZEPINE DERIVATIVES AND THEIR USE AS HISTAMINE H3 ANTAGONISTS” (TAKEDA PHARMACEUTICAL COMPANY LIMITED, priority 2008, published 2011).
